Test results reported in publication PMC10641811 (Journal of Medicinal Chemistry, 2023).
Each block holds one compound with its values, some of them ahead of it.

Tests used:
κ-isozyme of DGK = details: at 5 μM; cited from earlier work
[1] = tested on: diacylglycerol kinase α (DGKα); details: at 5 μM; cited from earlier work
δ-isozyme of DGK = details: at 5 μM; cited from earlier work
ι-isozyme of DGK = details: at 5 μM; cited from earlier work
[2] = assay type: physicochemical; details: for discoloration of solutions prepared for NMR: DMSO-d6 or CDCl3, ambient temperature; for discoloration when dissolved in DMSO: 5 days at ambient temperature
ABCC2 = details: read-out: IC50 in at least one assay; cited from earlier work
MSN/CD44 = MSN/CD44 (Homo sapiens, UniProt P26038); assay type: binding; details: for activity in MSN/CD44 TR-FRET assay: in words
Sequence of MSN/CD44 (P26038 2-295): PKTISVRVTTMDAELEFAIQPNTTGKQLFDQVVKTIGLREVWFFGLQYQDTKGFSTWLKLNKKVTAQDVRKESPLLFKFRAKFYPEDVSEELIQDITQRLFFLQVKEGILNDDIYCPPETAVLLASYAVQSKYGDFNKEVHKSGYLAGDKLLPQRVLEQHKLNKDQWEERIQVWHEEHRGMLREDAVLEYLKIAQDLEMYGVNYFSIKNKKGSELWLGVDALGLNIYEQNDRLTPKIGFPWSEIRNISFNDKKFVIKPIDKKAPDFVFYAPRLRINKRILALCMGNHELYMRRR

H. pylori = details: cited from earlier work
IspF domain = details: cited from earlier work
Shank3 PDZ domain = details: read-out: Shank3 IC50; cited from earlier work
NS5 = details: read-out: NS5 Ki; cited from earlier work
cell cycle progression = details: at ≥30 μM; cited from earlier work
WT PRC2-EZH2 = details: cited from earlier work
EZH2-EED interaction = details: cited from earlier work

SMILES: CC(=O)c1ccc2c(c1)C1C=CCC1C(C(=O)O)N2 (centres unmarked) [CU-4]
inhibition of κ-isozyme of DGK (κ-isozyme of DGK): strongly inhibit
inhibition of α-isozyme of DGK [1]: strongly inhibit
inhibition of δ-isozyme of DGK (δ-isozyme of DGK): strongly inhibit
inhibition of ι-isozyme of DGK (ι-isozyme of DGK): strongly inhibit

1H NMR analysis of samples kept in CDCl3 ([2]; CDCl3, 120 h in light): no significant changes in the spectra
stability in solution kept in the dark ([2]; DMSO-d6, dark, 72 h, 5 mg): remained a clear solution
stability in solution kept in the light ([2]; DMSO-d6, light, 72 h, 25 mg and 5 mg): decomposed and changed color (purple)
discoloration of solutions prepared for NMR ([2]; 72 h): Discoloration
SMILES: CCOC(=O)c1ccc2c(c1)C1C=CCC1C(C(=O)OCC)N2 (centres unmarked) [Compound 1, Diethyl 3a,4,5,9b-tetrahydro-3H-cyclopenta[c]quinoline-4,8-dicarboxylate]

SMILES: O=C(O)C1Nc2c(F)cccc2C2C=CCC12 (centres unmarked) [Compound 1e]
IC50 (ABCC2): < 30 µM

discoloration when dissolved in DMSO [2]: No discoloration
activity in MSN/CD44 TR-FRET assay (MSN/CD44): inactive
SMILES: CCOC(=O)c1ccc2c(c1)C1CCCC1C(C(=O)OCC)N2 (centres unmarked) [Compound 2]

discoloration when dissolved in DMSO [2]: No discoloration
activity in MSN/CD44 TR-FRET assay (MSN/CD44): inactive
SMILES: O=C(O)c1ccc2c(c1)C1CCCC1C(C(=O)O)N2 (centres unmarked) [Compound 3]

SMILES: O=C(O)C1Nc2ccc(Oc3ccccc3)cc2C2C=CCC12 (centres unmarked) [Compound 27]
inhibition of H. pylori growth (H. pylori): only a weak inhibitor
inhibitory effect in IspF domain assay (IspF domain): did not show an inhibitory effect

SMILES: O=C(O)[C@@H]1Nc2c(O)cc(Cl)c([N+](=O)[O-])c2[C@@H]2C=CC[C@H]12 [Compound 34]
IC50 (Shank3 PDZ domain): < 250 µM

SMILES: O=C(O)C1Nc2c(I)cccc2C2C=CCC12 (centres unmarked) [Compound 5660163]
Ki (NS5): < 10 µM

discoloration of solution prepared for biological evaluation ([2]; DMSO (10 mM)): same discoloration
discoloration of solutions prepared for NMR ([2]; 72 h): Discoloration
Hill coefficient (MSN/CD44; MSN/CD44 TR-FRET dose–response curve): 3.4
SMILES: O=C(O)c1ccc2c(c1)C1C=CCC1C(C(=O)O)N2 (centres unmarked) [Compound 5661118]
cell cycle arrest (cell cycle progression): failed to elicit cell cycle arrest

SMILES: O=C(O)c1cc(-c2ccccn2)c2c(c1)C1C=CCC1C(C(=O)O)N2 (centres unmarked) [WNN2074-A009]
inhibition of WT PRC2-EZH2 (WT PRC2-EZH2): inhibited
inhibition of the EZH2-EED interaction (EZH2-EED interaction): weak
